The values below come from US11247987B2, “Inhibiting ubiquitin specific peptidase 30” (FORMA Therapeutics, Inc., priority 2017, dated 2022).

As usually defined, the IC50 is the midpoint of a concentration-inhibition curve.

This assay has as its target T1, human recombinant USP30 (Homo sapiens, UniProt Q70CQ3).
T1 construct: purchased Boston Biochem E-582
T1 sequence (Q70CQ3 1-517): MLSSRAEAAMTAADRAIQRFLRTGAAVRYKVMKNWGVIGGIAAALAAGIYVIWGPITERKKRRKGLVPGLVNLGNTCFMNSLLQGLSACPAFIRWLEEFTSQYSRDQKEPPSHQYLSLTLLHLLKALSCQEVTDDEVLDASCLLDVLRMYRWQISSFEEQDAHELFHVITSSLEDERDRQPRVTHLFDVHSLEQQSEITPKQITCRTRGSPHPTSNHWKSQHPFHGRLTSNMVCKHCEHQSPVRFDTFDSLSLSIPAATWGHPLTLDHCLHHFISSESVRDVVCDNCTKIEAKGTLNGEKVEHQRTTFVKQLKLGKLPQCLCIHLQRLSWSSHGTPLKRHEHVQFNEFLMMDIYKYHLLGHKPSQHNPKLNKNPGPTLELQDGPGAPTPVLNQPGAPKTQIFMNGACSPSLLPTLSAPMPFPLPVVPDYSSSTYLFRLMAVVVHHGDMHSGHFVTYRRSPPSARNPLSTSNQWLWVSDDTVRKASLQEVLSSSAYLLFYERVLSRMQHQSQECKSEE
In words: Ubiquitin-Rhodamine 110 Assay for USP30 Activity (USP30 Inhibitor Biochemical Assay). The settings on record: 0.2 nM USP30, 25 nM Ub-Rh110, 30 min preincubation, 30 min at room temperature; read-out: USP30 potency range (USP30 biochemical IC50 assay, IC50 ranges). In outline: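 Human recombinant USP30 (0.2 nM final) was preincubated 30 min with compound (25 μM to 1.3 nM, 10-point) in Tris pH 8.0, 1 mM GSH, BGG and Triton X-100. Ub-Rh110 was then added for 30 min at room temperature and stopped with citric acid. Fluorescence at 485/535 nm gave % inhibition and a 4-parameter IC50 fit.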
Regarding `CN(C(=O)c1cc(-c2cccc(C#N)c2)no1)[C@H]1C[C@H](NC#N)C1` [Compound 3-6, 3-(3-cyanophenyl)-N-methyl-N-[(1r,3r)-3-(cyanoamino)cyclobutyl]-1,2-oxazole-5-carboxamide], the IC50 is 1 to 10 µM.

On to `N#CN[C@H]1C[C@@H](NC(=O)c2ncc(-c3ccccc3)s2)C1` [Compound 4-1, 5-phenyl-N-[(cis)-3-(cyanoamino)cyclobutyl]-1,3-thiazole-2-carboxamide], for which the IC50 was 1 to 10 µM.

For `N#CN[C@H]1C[C@@H](C(=O)Nc2cnn(-c3ccccc3)c2)C1` [Compound 5-1, cis-3-(cyanoamino)-N-(1-phenyl-1H-pyrazol-4-yl)cyclobutane-1-carboxamide], the IC50 lay in the range of 1 to 10 µM.

In the case of `N#CN[C@H]1C[C@@H](C(=O)Nc2ccn(-c3ccccc3)n2)C1` [Compound 5-2, cis-3-(cyanoamino)-N-(1-phenyl-1H-pyrazol-3-yl)cyclobutane-1-carboxamide], the 50% inhibitory concentration (IC50) was in the range of 10 to 25 µM.

With `N#CN[C@H]1C[C@@H](C(=O)Nc2ncc(C3CCCCC3)s2)C1` [Compound 5-3, cis-3-(cyanoamino)-N-(5-cyclohexyl-1,3-thiazol-2-yl)cyclobutane-1-carboxamide], the IC50 lay in the range of 1 to 10 µM.

Regarding `N#CN[C@H]1C[C@@H](C(=O)Nc2ncc(-c3ccccc3)s2)C1` [Compound 5-4, cis-3-(cyanoamino)-N-(5-phenyl-1,3-thiazol-2-yl)cyclobutane-1-carboxamide], the IC50 was in the range of 1 to 10 µM.

`N#CN[C@H]1C[C@H](C(=O)Nc2cnn(-c3ccccc3)c2)C1` [Compound 5-5, trans-3-(cyanoamino)-N-(1-phenyl-1H-pyrazol-4-yl)cyclobutane-1-carboxamide]: the IC50 was in the range of 1 to 10 µM.

For `N#CN[C@H]1C[C@H](C(=O)Nc2ccn(-c3ccccc3)n2)C1` [Compound 5-6, trans-3-(cyanoamino)-N-(1-phenyl-1H-pyrazol-3-y1)cyclobutane-1-carboxamide], the IC50 is 1 to 10 µM.

As for `N#CN[C@H]1C[C@H](C(=O)Nc2ncc(C3CCCCC3)s2)C1` [Compound 5-7, trans-3-(cyanoamino)-N-(5-cyclohexyl-1,3-thiazol-2-yl)cyclobutane-1-carboxamide], the IC50 lay in the range of 0.1 to 1 µM.

`N#CN[C@H]1C[C@H](C(=O)Nc2ncc(-c3ccccc3)s2)C1` [Compound 5-8, trans-3-(cyanoamino)-N-(5-phenyl-1,3-thiazol-2-yl)cyclobutane-1-carboxamide]: the IC50 lay in the range of 1 to 10 µM.

Regarding `N#CN[C@H]1C[C@@H](C(=O)Nc2ccc3c(c2)CCC3)C1` [Compound 5-9, cis-3-(cyanoamino)-N-(2,3-dihydro-1H-inden-5-yl)cyclobutane-1-carboxamide], the IC50 was 1 to 10 µM.

In the case of `CC(C)(C)c1cnc(NC(=O)[C@H]2C[C@@H](NC#N)C2)s1` [Compound 5-10, cis-N-(5-tert-butyl-1,3-thiazol-2-yl)-3-(cyanoamino)cyclobutane-1-carboxamide], the IC50 fell in the range of 10 to 25 µM.

Consider `N#CN[C@H]1C[C@@H](C(=O)N2CCN(c3ccccc3)CC2)C1` [Compound 5-11, {[cis-3-(4-phenylpiperazine-1-carbonyl)cyclobutyl]amino} carbonitrile], for which the IC50 was 10 to 25 µM.

For the molecule `N#CN[C@H]1C[C@H](C(=O)Nc2ccc3c(c2)CCC3)C1` [Compound 5-12, trans-3-(cyanoamio)-N-(2,3-dihydro-1H-inden-5-yl)cyclobutane-1-carboxamide], the IC50 is 1 to 10 µM.

Take `CC(C)(C)c1cnc(NC(=O)[C@H]2C[C@H](NC#N)C2)s1` [Compound 5-13, trans-N-(5-tert-butyl-1,3-thiazol-2-yl)-3-(cyanoamino)cyclobutane-1-carboxamide]: the IC50 lay within 0.1 to 1 µM.

With `N#CN[C@H]1C[C@H](C(=O)Nc2ccc(N3CCOCC3)cc2)C1` [Compound 5-14, trans-3-(cyanoamino)-N-[4-(morpholin-4-yl)phenyl]cylobutane-1-carboxamide], the IC50 lay within 10 to 25 µM.

As to `N#CN[C@H]1C[C@@]2(CCN(c3nc(Cl)c(C4CCCCC4)s3)C2=O)C1` [Compound 7-2, {[(2s,4r)-6-(4-chloro-5-cyclohexyl-l,3-thiazol-2-yl)-5-oxo-6-azaspiro[3.4]octan-2-yl]amino}carbonitrile], the IC50 lay in the range of 0.1 to 1 µM.

With `N#CN[C@H]1C[C@]2(CCN(c3nc(Cl)c(C4CCCCC4)s3)C2=O)C1` [Compound 7-3, {[(2r,4s)-6-(4-chloro-5-cyclohexyl-1,3-thiazol-2-yl)-5-oxo-6-azaspiro[3.4]octan-2-yl]amino}carbonitrilc], the IC50 was below 0.1 µM.

With `CO[C@]1(C(=O)Nc2nc(Cl)c(C(C)(C)C)s2)C[C@@H](NC#N)C1` [Compound 8-1, N-(5-tert-butyl-4-chloro-1,3-thiazol-2-yl)-3-(cyanoamino)-1-methoxycyclobutane-1-carboxamide], the IC50 was below 0.1 µM.

`N#CN[C@H]1CC[C@@H](C(=O)Nc2ncc(C3CCCCC3)s2)CC1` [Compound 10-1, cis-4-(cyanoamino)-N-(5-cyclohexyl-1,3-thiazol-2-yl)cyclohexane-1-carboxamide]: the IC50 fell in the range of 0.1 to 1 µM.

`N#CN[C@H]1CC[C@H](C(=O)Nc2ncc(C3CCCCC3)s2)CC1` [Compound 10-2, trans-4-(cyanoamino)-N-(5-cyclohexyl-1,3-thiazol-2-yl)cyclohexane-1-carboxamide]: the IC50 is 1 to 10 µM.

Consider `N#CN[C@@H]1CCC[C@H]1C(=O)Nc1ncc(C2CCCCC2)s1` [Compound 10-3, (1R,2R)-2-(cyanoamino)-N-(5-cyclohexyl-1,3-thiazol-2-yl)cyclopentane-1-carboxamide], for which the IC50 fell in the range of 1 to 10 µM.

`N#CN[C@H]1CCC[C@@H](C(=O)Nc2ncc(C3CCCCC3)s2)C1` [Compound 10-4, (1R,3S)-3-(cyanoamino)-N-(5-cyclohexyl-1,3-thiazol-2-yl)cyclohexane-1-carboxamide]: the IC50 is above 25 µM.

Regarding `N#CN[C@H]1CCC[C@H](C(=O)Nc2ncc(C3CCCCC3)s2)C1` [Compound 10-5, (1S,3S)-3-(cyanoamino)-N-(5-cyclohexyl-1,3-thiazol-2-yl)cyclohexane-1-carboxamide], the IC50 is above 25 µM.

Regarding `N#CN[C@@H]1CCC[C@H](C(=O)Nc2ncc(C3CCCCC3)s2)C1` [Compound 10-6, (1S,3R)-3-(cyanoamino)-N-(5-cyclohexyl-1,3-thiazol-2-yl)cyclohexane-1-carboxamide], the IC50 fell in the range of 1 to 10 µM.

Turning to `N#CN[C@H]1CCC[C@H]1C(=O)Nc1ncc(C2CCCCC2)s1` [Compound 10-7, (1R,2S)-2-(cyanoamino)-N-(5-cyclohexyl-1,3-thiazol-2-yl)cyclopentane-1-carboxamide], the IC50 was 1 to 10 µM.

With `N#CN[C@@H]1CCC[C@@H]1C(=O)Nc1ncc(C2CCCCC2)s1` [Compound 10-8, (1S,2R)-2-(cyanoamino)-N-(5-cyclohexyl-1,3-thiazol-2-yl)cyclopentane-1-carboxamide], the IC50 is 1 to 10 µM.

`N#CN[C@H]1CCC[C@@H]1C(=O)Nc1ncc(C2CCCCC2)s1` [Compound 10-9, (1S,2S)-2-(cyanoamino)-N-(5-cyclohexyl-1,3-thiazol-2-yl)cyclopentane-1-carboxamide]: the IC50 was 1 to 10 µM.

Turning to `N#CN[C@H]1CC[C@H](C(=O)Nc2ncc(C3CCOCC3)s2)C1` [Compound 10-10, (1S,3S)-3-(cyanoamino)-N-[5-(oxan-4-yl)-1,3-thiazol-2-yl]cyclopentane-1-carboxamide], the IC50 fell in the range of 1 to 10 µM.

On to `N#CN[C@@H]1CC[C@@H](C(=O)Nc2ncc(C3CCOCC3)s2)C1` [Compound 10-11, (1R,3R)-3-(cyanoamino)-N-[5-(oxan-4-yl)-1,3-thiazol-2-yl]cyclopentane-1-carboxamide], for which the IC50 was 10 to 25 µM.

In the case of `N#CN[C@H]1CC[C@@H](C(=O)Nc2ncc(-c3ccccc3)s2)C1` [Compound 12-1, (1R,3S)-3-(cyanoamino)-N-(5-phenyl-1,3-thiazol-2-yl)cyclopentane-1-carboxamide], the IC50 lay in the range of 1 to 10 µM.

In the case of `N#CN[C@H]1CC[C@H](C(=O)Nc2ccn(-c3ccccc3)n2)C1` [Compound 12-2, (1S,3S)-3-(cyanoamino)-N-(1-phenyl-1H-pyrazol-3-yl)cyclopentane-1-carboxamide], the IC50 fell in the range of 10 to 25 µM.

For `N#CN[C@H]1CC[C@H](C(=O)Nc2ncc(C3CCCCC3)s2)C1` [Compound 12-3, (1S,3S)-3-(cyanoamino)-N-(5-cyclohexyl-1,3-thiazol-2-yl)cyclopentane-1-carboxamide], the IC50 fell in the range of 0.1 to 1 µM.

Consider `N#CN[C@H]1CC[C@H](C(=O)Nc2ncc(-c3ccccc3)s2)C1` [Compound 12-4, (1S,3S)-3-(cyanoamino)-N-(5-phenyl-1,3-thiazol-2-yl)cyclopentane-1-carboxamide], for which the IC50 was in the range of 1 to 10 µM.

As to `N#CN[C@H]1CC[C@H](C(=O)Nc2ccc3c(c2)CCC3)C1` [Compound 12-5, (1S,3S)-3-(cyanoamino)-N-(2,3-dihydro-1H-inden-5-yl)cyclopentane-1-carboxamide], the IC50 was in the range of 10 to 25 µM.

For `N#CN[C@H]1CC[C@H](C(=O)N2CCN(c3ccccc3)CC2)C1` [Compound 12-6, {[(1S,3S)-3-(4-phenylpiperazine-1-carbonyl)cyclopentyl]amino}carbonitrile], the IC50 was above 25 µM.
